Reference: the kinase profiling compilation of Christmann-Franck et al. (2016)

What was measured:
Test in all cases: KINOMEscan competition binding
Details in all cases: compound 10.0 µM
[1] = target: TAOK2 (human) (UniProt Q9UL54)
[2] = target: RIOK3 (human) (UniProt O14730)
[3] = target: NUAK1 (human) (UniProt O60285)
[4] = target: GSK3B (human) (UniProt P49841)
[5] = target: CAMK2D (human) (UniProt Q13557)
[6] = target: AURKC (human) (UniProt Q9UQB9)
[7] = target: MAP3K2 (human) (UniProt Q9Y2U5)
[8] = target: DAPK1 (human) (UniProt P53355)
Chain of DAPK1 (human) (P53355 whole entry, looked up): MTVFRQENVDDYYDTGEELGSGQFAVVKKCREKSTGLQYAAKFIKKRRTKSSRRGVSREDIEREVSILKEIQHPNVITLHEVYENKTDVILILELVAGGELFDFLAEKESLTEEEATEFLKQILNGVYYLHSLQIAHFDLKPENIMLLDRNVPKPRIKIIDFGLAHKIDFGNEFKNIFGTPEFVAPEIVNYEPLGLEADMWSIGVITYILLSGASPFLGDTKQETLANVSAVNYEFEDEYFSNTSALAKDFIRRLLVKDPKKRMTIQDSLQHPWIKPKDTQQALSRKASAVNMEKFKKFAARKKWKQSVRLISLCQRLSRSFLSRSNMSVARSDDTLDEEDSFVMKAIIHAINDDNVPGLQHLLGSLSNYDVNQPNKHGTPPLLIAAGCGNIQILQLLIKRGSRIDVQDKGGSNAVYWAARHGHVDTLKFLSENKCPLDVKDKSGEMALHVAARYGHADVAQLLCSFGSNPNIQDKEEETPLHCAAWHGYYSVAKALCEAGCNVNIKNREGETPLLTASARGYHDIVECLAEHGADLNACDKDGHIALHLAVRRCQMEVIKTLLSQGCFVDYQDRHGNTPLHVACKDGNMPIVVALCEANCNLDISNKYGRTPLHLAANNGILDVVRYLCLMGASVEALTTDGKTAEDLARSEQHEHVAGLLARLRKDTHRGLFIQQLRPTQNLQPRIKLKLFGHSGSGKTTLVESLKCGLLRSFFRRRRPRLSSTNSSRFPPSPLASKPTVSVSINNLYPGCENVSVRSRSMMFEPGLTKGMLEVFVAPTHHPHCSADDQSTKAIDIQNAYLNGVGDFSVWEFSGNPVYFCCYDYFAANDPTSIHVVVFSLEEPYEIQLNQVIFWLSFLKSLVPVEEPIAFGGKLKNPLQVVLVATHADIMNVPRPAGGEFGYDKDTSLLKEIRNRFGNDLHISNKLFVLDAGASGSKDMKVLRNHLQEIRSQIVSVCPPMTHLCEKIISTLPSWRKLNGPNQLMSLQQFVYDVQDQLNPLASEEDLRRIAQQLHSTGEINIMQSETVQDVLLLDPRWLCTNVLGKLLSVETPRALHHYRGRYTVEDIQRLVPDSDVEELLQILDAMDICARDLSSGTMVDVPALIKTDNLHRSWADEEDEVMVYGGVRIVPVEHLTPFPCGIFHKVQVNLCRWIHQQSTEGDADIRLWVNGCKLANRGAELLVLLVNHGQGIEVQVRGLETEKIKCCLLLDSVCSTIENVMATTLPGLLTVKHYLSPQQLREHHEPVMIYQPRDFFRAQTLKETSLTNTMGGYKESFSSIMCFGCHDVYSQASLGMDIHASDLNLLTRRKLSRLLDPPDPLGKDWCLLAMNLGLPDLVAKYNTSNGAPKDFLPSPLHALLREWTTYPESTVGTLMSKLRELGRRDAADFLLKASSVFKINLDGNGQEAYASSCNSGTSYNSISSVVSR

[9] = target: DCLK2 (human) (UniProt Q8N568)
[10] = target: PRKAA2 (human) (UniProt P54646)
Chain of PRKAA2 (human) (P54646 whole entry, looked up): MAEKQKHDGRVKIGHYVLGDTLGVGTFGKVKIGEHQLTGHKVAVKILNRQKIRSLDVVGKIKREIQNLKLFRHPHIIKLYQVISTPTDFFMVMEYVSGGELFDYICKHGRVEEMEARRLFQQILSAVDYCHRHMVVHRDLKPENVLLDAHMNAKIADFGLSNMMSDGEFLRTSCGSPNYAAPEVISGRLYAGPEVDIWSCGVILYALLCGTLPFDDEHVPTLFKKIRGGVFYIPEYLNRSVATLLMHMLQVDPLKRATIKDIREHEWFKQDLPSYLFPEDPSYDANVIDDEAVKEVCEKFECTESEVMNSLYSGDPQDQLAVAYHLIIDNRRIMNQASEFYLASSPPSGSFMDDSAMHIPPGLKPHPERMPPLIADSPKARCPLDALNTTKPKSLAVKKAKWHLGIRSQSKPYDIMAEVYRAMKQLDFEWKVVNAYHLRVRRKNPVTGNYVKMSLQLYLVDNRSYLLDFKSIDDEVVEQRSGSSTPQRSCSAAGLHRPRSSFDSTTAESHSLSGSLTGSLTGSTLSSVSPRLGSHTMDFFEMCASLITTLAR

[11] = target: MAP3K1 (human) (UniProt Q13233)
[12] = target: MAST1 (human) (UniProt Q9Y2H9)
[13] = target: CSNK1G1 (human) (UniProt Q9HCP0)
[14] = target: STK35 (human) (UniProt Q8TDR2)
[15] = target: MAP2K5 (human) (UniProt Q13163)
[16] = target: CDK7 (human) (UniProt P50613)
[17] = target: MAP3K7 (human) (UniProt O43318)
[18] = target: IRAK1 (human) (UniProt P51617)
[19] = target: LIMK2 (human) (UniProt P53671)
[20] = target: MAP4K2 (human) (UniProt Q12851)
[21] = target: TNK2 (human) (UniProt Q07912)
[22] = target: INSR (human) (UniProt P06213)
[23] = target: MYLK3 (human) (UniProt Q32MK0)
[24] = target: MAP3K12 (human) (UniProt Q12852)
[25] = target: DYRK1A (human) (UniProt Q13627)
[26] = target: NIM1 (human) (UniProt Q8IY84)
Chain of NIM1 (human) (Q8IY84 whole entry, looked up): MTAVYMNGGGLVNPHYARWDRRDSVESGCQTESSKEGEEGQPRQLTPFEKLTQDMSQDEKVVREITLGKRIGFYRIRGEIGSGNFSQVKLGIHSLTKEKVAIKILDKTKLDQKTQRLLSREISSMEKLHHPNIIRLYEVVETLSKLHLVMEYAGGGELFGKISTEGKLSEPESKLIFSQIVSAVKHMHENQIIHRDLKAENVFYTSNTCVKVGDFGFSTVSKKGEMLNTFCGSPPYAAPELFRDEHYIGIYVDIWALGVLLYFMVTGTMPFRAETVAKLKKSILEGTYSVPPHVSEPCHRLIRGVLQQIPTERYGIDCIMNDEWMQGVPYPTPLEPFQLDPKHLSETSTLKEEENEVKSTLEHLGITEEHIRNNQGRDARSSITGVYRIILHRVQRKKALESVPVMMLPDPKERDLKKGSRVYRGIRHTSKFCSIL

[27] = target: BLK (human) (UniProt P51451)
[28] = target: ULK3 (human) (UniProt Q6PHR2)
Chain of ULK3 (human) (Q6PHR2 whole entry, looked up): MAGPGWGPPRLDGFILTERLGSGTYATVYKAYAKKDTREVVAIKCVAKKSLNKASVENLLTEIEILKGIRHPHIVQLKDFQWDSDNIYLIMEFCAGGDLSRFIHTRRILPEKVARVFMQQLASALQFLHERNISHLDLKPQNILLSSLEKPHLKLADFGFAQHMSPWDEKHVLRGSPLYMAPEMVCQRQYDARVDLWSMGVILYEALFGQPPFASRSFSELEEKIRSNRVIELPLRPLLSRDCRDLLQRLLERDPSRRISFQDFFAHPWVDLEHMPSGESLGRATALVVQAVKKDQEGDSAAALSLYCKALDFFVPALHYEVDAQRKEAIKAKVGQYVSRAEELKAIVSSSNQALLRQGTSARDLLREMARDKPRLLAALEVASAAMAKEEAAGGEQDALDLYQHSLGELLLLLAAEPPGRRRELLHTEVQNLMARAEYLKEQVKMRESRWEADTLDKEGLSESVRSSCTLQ

[29] = target: TSSK1B (human) (UniProt Q9BXA7)
[30] = target: CAMKK1 (human) (UniProt Q8N5S9)
[31] = target: CDK15 (human) (UniProt Q96Q40)
Chain of CDK15 (human) (Q96Q40 whole entry, looked up): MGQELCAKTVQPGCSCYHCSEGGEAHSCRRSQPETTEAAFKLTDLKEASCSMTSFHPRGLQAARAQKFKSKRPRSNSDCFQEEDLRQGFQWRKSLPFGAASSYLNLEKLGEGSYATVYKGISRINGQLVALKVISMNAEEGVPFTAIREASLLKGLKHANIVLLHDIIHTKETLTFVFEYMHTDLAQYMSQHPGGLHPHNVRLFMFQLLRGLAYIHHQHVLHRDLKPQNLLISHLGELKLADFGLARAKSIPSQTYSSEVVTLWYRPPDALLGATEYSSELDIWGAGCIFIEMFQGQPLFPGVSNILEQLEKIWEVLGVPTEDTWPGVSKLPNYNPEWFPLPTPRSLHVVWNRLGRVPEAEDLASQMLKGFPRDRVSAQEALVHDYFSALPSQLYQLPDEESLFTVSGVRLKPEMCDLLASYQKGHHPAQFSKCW

[32] = tested on: PIK3CA (human), P42336 [E542K]
[33] = target: PRKG1 (human) (UniProt Q13976)
Chain of PRKG1 (human) (Q13976 whole entry, looked up): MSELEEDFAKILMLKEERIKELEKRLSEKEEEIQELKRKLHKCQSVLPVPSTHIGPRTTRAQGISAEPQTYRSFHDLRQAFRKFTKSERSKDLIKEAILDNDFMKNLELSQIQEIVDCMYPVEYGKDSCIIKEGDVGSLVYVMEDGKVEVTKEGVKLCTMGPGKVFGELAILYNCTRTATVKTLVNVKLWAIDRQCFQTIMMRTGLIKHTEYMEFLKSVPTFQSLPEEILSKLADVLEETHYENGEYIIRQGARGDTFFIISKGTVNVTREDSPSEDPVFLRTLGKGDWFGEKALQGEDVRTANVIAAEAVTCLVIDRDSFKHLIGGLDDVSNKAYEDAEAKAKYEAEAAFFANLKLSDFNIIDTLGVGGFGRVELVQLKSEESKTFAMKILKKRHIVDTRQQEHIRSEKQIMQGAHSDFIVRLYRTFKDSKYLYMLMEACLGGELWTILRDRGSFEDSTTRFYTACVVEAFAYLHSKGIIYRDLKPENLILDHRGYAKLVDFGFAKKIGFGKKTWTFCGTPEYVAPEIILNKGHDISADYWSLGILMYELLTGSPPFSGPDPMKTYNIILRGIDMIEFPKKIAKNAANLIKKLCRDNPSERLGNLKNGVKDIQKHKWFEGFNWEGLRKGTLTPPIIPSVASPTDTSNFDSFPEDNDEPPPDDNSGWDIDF

[34] = target: LATS1 (human) (UniProt O95835)
[35] = target: ROS1 (human) (UniProt P08922)
[36] = target: BMPR1A (human) (UniProt P36894)
[37] = target: MAP2K7 (human) (UniProt O14733)
[38] = target: STK38 (human) (UniProt Q15208)
[39] = target: PKN3 (M.tuberculosis) (UniProt Q6P5Z2)
[40] = target: TBK1 (human) (UniProt Q9UHD2)

Chain of NUAK1 (human) (O60285 whole entry, looked up): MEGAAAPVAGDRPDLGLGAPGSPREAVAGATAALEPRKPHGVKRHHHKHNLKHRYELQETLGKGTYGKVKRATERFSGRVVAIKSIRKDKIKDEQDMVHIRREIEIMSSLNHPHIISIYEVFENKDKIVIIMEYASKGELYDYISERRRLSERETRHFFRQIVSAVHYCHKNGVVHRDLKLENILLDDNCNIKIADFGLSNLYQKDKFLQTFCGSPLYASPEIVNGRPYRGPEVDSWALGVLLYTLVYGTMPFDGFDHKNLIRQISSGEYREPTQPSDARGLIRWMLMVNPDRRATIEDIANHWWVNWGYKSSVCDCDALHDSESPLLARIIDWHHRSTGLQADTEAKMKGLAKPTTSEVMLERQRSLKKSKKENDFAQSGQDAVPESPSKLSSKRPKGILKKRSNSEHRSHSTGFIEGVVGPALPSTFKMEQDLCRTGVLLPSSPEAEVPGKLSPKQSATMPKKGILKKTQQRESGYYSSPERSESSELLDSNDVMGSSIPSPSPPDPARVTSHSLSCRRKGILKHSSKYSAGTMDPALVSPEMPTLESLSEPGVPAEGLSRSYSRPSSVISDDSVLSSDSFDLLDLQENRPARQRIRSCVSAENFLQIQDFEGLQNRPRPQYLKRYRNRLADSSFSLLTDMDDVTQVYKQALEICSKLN
Chain of AURKC (human) (Q9UQB9 whole entry, looked up): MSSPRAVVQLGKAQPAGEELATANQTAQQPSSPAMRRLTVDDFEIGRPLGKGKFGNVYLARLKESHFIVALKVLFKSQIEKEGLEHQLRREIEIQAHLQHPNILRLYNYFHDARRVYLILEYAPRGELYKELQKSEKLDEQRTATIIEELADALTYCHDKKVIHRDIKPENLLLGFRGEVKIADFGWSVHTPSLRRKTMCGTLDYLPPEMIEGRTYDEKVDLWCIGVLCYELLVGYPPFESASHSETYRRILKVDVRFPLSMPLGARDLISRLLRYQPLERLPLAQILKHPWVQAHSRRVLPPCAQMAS

Row | Compound | kinase still bound, per cent of control [1] | kinase still bound, per cent of control [2] | kinase still bound, per cent of control [3] | kinase still bound, per cent of control [4] | kinase still bound, per cent of control [5] | kinase still bound, per cent of control [6] | kinase still bound, per cent of control [7] | kinase still bound, per cent of control [8] | kinase still bound, per cent of control [9] | kinase still bound, per cent of control [10] | kinase still bound, per cent of control [11] | kinase still bound, per cent of control [12] | kinase still bound, per cent of control [13] | kinase still bound, per cent of control [14] | kinase still bound, per cent of control [15] | kinase still bound, per cent of control [16] | kinase still bound, per cent of control [17] | kinase still bound, per cent of control [18] | kinase still bound, per cent of control [19] | kinase still bound, per cent of control [20] | other results
1 | C=CC(=O)Nc1ccc(C(=O)c2sc(Nc3ccc(N4CCN(C)CC4)cc3OC)nc2N)cc1 | 20% | 61% | 100% | 100% | 2.1% | 68% | 68% | 9.4% | 28% | 100% | 100% | 0% | 18% | 94% | 100% | 5.8% | 73% | 41% | 100% | 4.6% | kinase still bound, per cent of control [21]: 82%; kinase still bound, per cent of control [22]: 98%; kinase still bound, per cent of control [23]: 100%; kinase still bound, per cent of control [24]: 79%; kinase still bound, per cent of control [25]: 0.15%; kinase still bound, per cent of control [26]: 91%; kinase still bound, per cent of control [27]: 100%; kinase still bound, per cent of control [28]: 35%; kinase still bound, per cent of control [29]: 44%; kinase still bound, per cent of control [30]: 3.3%; kinase still bound, per cent of control [31]: 87%; kinase still bound, per cent of control [32]: 100%; kinase still bound, per cent of control [33]: 74%; kinase still bound, per cent of control [34]: 82%; kinase still bound, per cent of control [35]: 38%; kinase still bound, per cent of control [36]: 91%; kinase still bound, per cent of control [37]: 93%; kinase still bound, per cent of control [38]: 67%; kinase still bound, per cent of control [39]: 100%; kinase still bound, per cent of control [40]: 100%
2 | CC1=C(C(=O)Nc2cc3cn[nH]c3cc2F)C(c2ccc(C(F)(F)F)cc2)CC(=O)N1 (stereo not given) | 96% | 100% | 28% | 89% | 100% | 33% | 79% | 81% | 87% | 25% | 90% | 77% | 100% | 96% | 71% | 58% | 78% | 90% | 89% | 96% | kinase still bound, per cent of control [21]: 88%; kinase still bound, per cent of control [22]: 96%; kinase still bound, per cent of control [23]: 92%; kinase still bound, per cent of control [24]: 69%; kinase still bound, per cent of control [25]: 100%; kinase still bound, per cent of control [26]: 86%; kinase still bound, per cent of control [27]: 12%; kinase still bound, per cent of control [28]: 99%; kinase still bound, per cent of control [29]: 98%; kinase still bound, per cent of control [30]: 72%; kinase still bound, per cent of control [31]: 84%; kinase still bound, per cent of control [32]: 92%; kinase still bound, per cent of control [33]: 15%; kinase still bound, per cent of control [34]: 60%; kinase still bound, per cent of control [35]: 100%; kinase still bound, per cent of control [36]: 17%; kinase still bound, per cent of control [37]: 80%; kinase still bound, per cent of control [38]: 19%; kinase still bound, per cent of control [39]: 92%; kinase still bound, per cent of control [40]: 82%
3 | COc1cc2ncnc(Nc3cccc(Cl)c3)c2cc1OC | 76% | 78% | 98% | 90% | 61% | 49% | 30% | 53% | 88% | 100% | 16% | 79% | 100% | 58% | 3.5% | 26% | 39% | 5.6% | 100% | 36% | kinase still bound, per cent of control [21]: 61%; kinase still bound, per cent of control [22]: 62%; kinase still bound, per cent of control [23]: 76%; kinase still bound, per cent of control [24]: 92%; kinase still bound, per cent of control [25]: 40%; kinase still bound, per cent of control [26]: 77%; kinase still bound, per cent of control [27]: 7.1%; kinase still bound, per cent of control [28]: 24%; kinase still bound, per cent of control [29]: 100%; kinase still bound, per cent of control [30]: 74%; kinase still bound, per cent of control [31]: 75%; kinase still bound, per cent of control [32]: 55%; kinase still bound, per cent of control [33]: 100%; kinase still bound, per cent of control [34]: 100%; kinase still bound, per cent of control [35]: 61%; kinase still bound, per cent of control [36]: 55%; kinase still bound, per cent of control [37]: 73%; kinase still bound, per cent of control [38]: 61%; kinase still bound, per cent of control [39]: 100%; kinase still bound, per cent of control [40]: 45%
